These compounds were tested on IL-5 production (assay: In vitro inhibition of IL-5 production in human blood (phytohemagglutinin-stimulated whole blood, ELISA)). Conditions: test dose 1×10^−6 M, 48 hours.
Format: cell-based
In short: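 Percent inhibition of IL-5, quantified by ELISA in cell-free supernatants, is given at a single dose of 1×10^−6 M (or 1×10^−5 M). Threefold-diluted human whole blood from healthy men received compound for 60 min at 37° C before 48 h PHA stimulation at 2 μg/mL.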
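Note: values marked with an asterisk were tested at 10 µM and unmarked values at 1 µM.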

Compound	% inh. (percentage inhibition of IL-5 production) [%]
CC(c1ccc(Cl)cc1)(c1nc(-c2ccccc2)no1)c1ccc(-n2ncc(=O)[nH]c2=O)cc1Cl (racemic) [Comp 106]	77
O=c1cnn(-c2cc(Cl)c(C(Sc3nc(-c4ccccc4)cs3)c3ccc(Cl)c(C(F)(F)F)c3)c(Cl)c2)c(=O)[nH]1 (stereo not shown) [Compound 381]	95
O=c1cnn(-c2cc(Cl)c(C(c3ccc(Cl)cc3)c3nc(-c4cccc(F)c4)cs3)c(Cl)c2)c(=O)[nH]1 (single isomer, unassigned) [Comp 318]	81
O=c1cnn(-c2cc(Cl)c(C(c3ccc(Cl)cc3)c3nc(-c4cccs4)cs3)c(Cl)c2)c(=O)[nH]1 (racemic) [Comp 31]	93
Cc1cc(C(c2nc(-c3ccccc3)cs2)c2c(Cl)cc(-n3ncc(=O)[nH]c3=O)cc2Cl)ccc1Cl (racemic) [Comp 269]	90
O=C(CO)Nc1cccc(-c2nnc(C(c3ccc(Cl)cc3)c3c(Cl)cc(-n4ncc(=O)[nH]c4=O)cc3Cl)o2)c1 (racemic) [Compound 215]	54
Cc1nnc(SC(c2ccc(Cl)cc2)c2ccc(-n3ncc(=O)[nH]c3=O)cc2Cl)[nH]c1=O (stereo not shown) [Compound 85]	38
O=c1cnn(-c2ccc(C(SC3=NCCS3)c3ccc(Cl)cc3)c(Cl)c2)c(=O)[nH]1 (racemic) [Compound 78]	70
O=c1cnn(-c2cc(Cl)c(C(c3ccc(Cl)cc3)c3nc(-c4ccccc4F)cs3)c(Cl)c2)c(=O)[nH]1 (racemic) [Comp 242]	98
Cc1oc(C(c2ccc(Cl)cc2)c2c(Cl)cc(-n3ncc(=O)[nH]c3=O)cc2Cl)nc1-c1ccc(F)cc1 (stereo not shown) [Comp 431]	67
O=c1cnn(-c2ccc(C(c3ccc(Cl)cc3)c3cnc(-c4ccccc4)s3)c(Cl)c2)c(=O)[nH]1 (racemic) [Compound 141]	64
Cc1cc(C(C)(c2ccc(Cl)c(C(F)(F)F)c2)c2nc(-c3ccccc3)cs2)c(Cl)cc1-n1ncc(=O)[nH]c1=O (racemic) [Comp 235]	79
CN1CCC(NC(c2ccc(Cl)cc2)c2ccc(-n3ncc(=O)[nH]c3=O)cc2Cl)CC1 (racemic) [Compound 48, (±)-2-[3-chloro-4-[(4-chlorophenyl)[(1-methyl)-4-piperidinyl)amino]methyl]phenyl]-1,2,4-triazine-3,5(2H,4H)-dione]	29
Cc1sc(-c2ccccc2)nc1C(c1ccc(Cl)cc1)c1c(Cl)cc(-n2ncc(=O)[nH]c2=O)cc1Cl (racemic) [Compound 365]	88
O=c1cnn(-c2cc(Cl)c(C(Sc3nnc(-c4ccccc4)o3)c3ccc(Cl)c(C(F)(F)F)c3)c(Cl)c2)c(=O)[nH]1 (stereo not shown) [Compound 391]	97
O=c1cnn(-c2cc(Cl)c(C(c3ccc(Cl)c(C(F)(F)F)c3)c3nc(-c4ccccc4)cs3)c(Cl)c2)c(=O)[nH]1 (racemic) [Comp 226]	93
O=c1cnn(-c2cc(Cl)c(C(Sc3nc(-c4cccs4)cs3)c3ccc(Cl)c(C(F)(F)F)c3)c(Cl)c2)c(=O)[nH]1 (stereo not shown) [Compound 390]	89
Cc1cccc(-c2csc(C(c3ccc(Cl)cc3)c3c(Cl)cc(-n4ncc(=O)[nH]c4=O)cc3Cl)n2)c1 (racemic) [Comp 22]	93
Cc1nc(-c2cccc(F)c2)c(C(c2ccc(Cl)cc2)c2ccc(-n3ncc(=O)[nH]c3=O)cc2Cl)s1 (racemic) [Compound 143]	81
CN(C)CCSC(c1ccc(Cl)cc1)c1ccc(-n2ncc(=O)[nH]c2=O)cc1Cl (racemic) [Compound 54]	14
CCOc1ccc2nc(SC(c3ccc(Cl)c(C(F)(F)F)c3)c3c(Cl)cc(-n4ncc(=O)[nH]c4=O)cc3Cl)sc2c1 (stereo not shown) [Compound 394]	93
O=C(c1sc(C(c2ccc(Cl)cc2)c2c(Cl)cc(-n3ncc(=O)[nH]c3=O)cc2Cl)nc1-c1ccccc1)N1CCOCC1 (racemic) [Comp 306]	92
O=C(NC(c1ccc(Cl)cc1)c1ccc(-n2ncc(=O)[nH]c2=O)cc1Cl)c1ccccc1 (racemic) [Compound 47, (±)-N-[[2-chloro-4-(4,5-dihydro-3,5-dioxo-1,2,4-triazin-3(2H)-yl)phenyl](4-chlorophenyl)methyl]benzamide]	33

Compound	% inh. (percentage inhibition of IL-5 production) [%]
O=c1cnn(-c2cc(Cl)c(C(c3ccc(Cl)cc3)c3nnc(C4CCCCC4)o3)c(Cl)c2)c(=O)[nH]1 (racemic) [Compound 159]	87
O=c1cnn(-c2ccc(C(Sc3ccc(F)cc3)c3ccc(Cl)cc3)c(Cl)c2)c(=O)[nH]1 (racemic) [Compound 57]	50
O=c1cnn(-c2cc(Cl)c(C(c3ccc(Cl)cc3)c3nnc(-c4ccc(Cl)cc4)o3)c(Cl)c2)c(=O)[nH]1 (racemic) [Compound 167]	82
O=c1cnn(-c2cc(Cl)c(C(c3ccc(Cl)c(C(F)(F)F)c3)c3nnc(-c4ccccc4)o3)c(Cl)c2)c(=O)[nH]1 (racemic) [Compound 165]	80
CC(c1ccc(Cl)cc1)(c1nnc(-c2ccccc2)o1)c1ccc(-n2ncc(=O)[nH]c2=O)cc1Cl (racemic) [Comp 104]	60
O=c1cnn(-c2cc(Cl)c(C(c3ccc(Cl)cc3)c3nc(-c4cccc(C(F)(F)F)c4)cs3)c(Cl)c2)c(=O)[nH]1 (racemic) [Comp 20]	70
O=c1cnn(-c2cc(Cl)c(C(c3ccc(Cl)cc3)c3csc(-c4ccccc4Cl)n3)c(Cl)c2)c(=O)[nH]1 (racemic) [Compound 367]	74
O=c1cnn(-c2ccc(C(c3ccc(Cl)cc3)c3scnc3-c3cccc(F)c3)c(Cl)c2)c(=O)[nH]1 (racemic) [Compound 148]	79
O=c1cnn(-c2cc(Cl)c(C(c3ccc(Cl)cc3)c3nc(-c4ccc(-c5ccccc5)cc4)cs3)c(Cl)c2)c(=O)[nH]1 (racemic) [Comp 30]	57
O=c1cnn(-c2ccc(C(Nc3nccs3)c3ccc(Cl)cc3)c(Cl)c2)c(=O)[nH]1 (racemic) [Compound 44]	40
O=c1cnn(-c2cc(Cl)c(C(c3ccc(Cl)c(C(F)(F)F)c3)c3nc(-c4ccccc4Cl)cs3)c(Cl)c2)c(=O)[nH]1 (racemic) [Comp 254]	86
O=c1cnn(-c2ccc(C(O)(c3ccc(Cl)cc3)c3nc4ccccc4s3)c(Cl)c2)c(=O)[nH]1 (stereo not shown) [Comp 111]	61
COC1CCN(Cc2sc(C(c3ccc(Cl)cc3)c3c(Cl)cc(-n4ncc(=O)[nH]c4=O)cc3Cl)nc2-c2ccccc2)CC1.Cl.O (racemic) [Comp 314]	81
O=c1cnn(-c2ccc(C(c3ccc(Cl)cc3)c3sc(-c4ccccc4Cl)nc3-c3ccccc3)c(Cl)c2)c(=O)[nH]1 (racemic) [Compound 150]	48
Cc1sc(NC(c2ccc(Cl)cc2)c2ccc(-n3ncc(=O)[nH]c3=O)cc2Cl)nc1-c1ccccc1 (racemic) [Compound 412]	16
CC(c1ccc(Cl)c(C(F)(F)F)c1)(c1nc(-c2ccccc2)cs1)c1ccc(-n2ncc(=O)[nH]c2=O)cc1Cl (racemic) [Comp 239]	72
O=c1cnn(-c2cc(Cl)c(C(Sc3nc4ccccc4s3)c3ccc(Cl)c(C(F)(F)F)c3)c(Cl)c2)c(=O)[nH]1 (stereo not shown) [Compound 385]	95
O=c1cnn(-c2cc(Cl)c(C(Sc3nc(-c4ccco4)cs3)c3ccc(Cl)c(C(F)(F)F)c3)c(Cl)c2)c(=O)[nH]1 (racemic) [Compound 399]	93
CN(C)Cc1csc(C(c2ccc(Cl)cc2)c2c(Cl)cc(-n3ncc(=O)[nH]c3=O)cc2Cl)n1 (racemic) [Comp 240]	54
O=C(Cc1sc(C(c2ccc(Cl)cc2)c2c(Cl)cc(-n3ncc(=O)[nH]c3=O)cc2Cl)nc1-c1ccccc1)NC1CCN(Cc2ccccc2)CC1 (racemic) [Comp 326]	89
O=C(NC1CCN(Cc2ccccc2)CC1)c1sc(C(c2ccc(Cl)cc2)c2c(Cl)cc(-n3ncc(=O)[nH]c3=O)cc2Cl)nc1-c1ccccc1 (racemic) [Comp 305]	51
CN1CCN(C(=O)c2sc(C(c3ccc(Cl)cc3)c3c(Cl)cc(-n4ncc(=O)[nH]c4=O)cc3Cl)nc2-c2ccccc2)CC1 (racemic) [Comp 304]	35
Cc1cc(NC(c2ccc(Cl)cc2)c2ccc(-n3ncc(=O)[nH]c3=O)cc2Cl)no1 (racemic) [Compound 40]	31

Same assay, conditions: test dose 1×10^−6 M, 48 hours, read-out: % inh. (percentage inhibition of IL-5 production)

Compound	inhibition at 1 µM [%]
O=c1cnn(-c2cc(Cl)c(C(c3ccc(Cl)cc3)c3nc(-c4ccccc4)cs3)c(Cl)c2)c(=O)[nH]1 (racemic) [Compound 38, (±)-2-[3,5-dichloro-4-[(4-chlorophenyl)(4-phenyl-2-thiazolyl)methyl]phenyl]-1,2,4-triazine-3,5(2H,4H)-dione]	92
O=c1cnn(-c2cc(Cl)c(C(Sc3nccc(N4CCNCC4)n3)c3ccc(Cl)cc3)c(Cl)c2)c(=O)[nH]1 (racemic) [Compound 360, (±)-2-[3,5-dichloro-4-[(4-chlorophenyl)[[4-(1-piperazinyl)-2-pyrimidinyl]thio]methyl]phenyl]-1,2,4-triazine-3,5(2H,4H)-dione monohydrate]	84
O=c1cnn(-c2ccc(C(Sc3ncc[nH]3)c3ccc(Cl)cc3)c(Cl)c2)c(=O)[nH]1 (racemic) [Compound 94, (±)-2-[3-chloro-4-[(4-chlorophenyl)(1H-imidazol-2-ylthio)methyl]phenyl]-1,2,4-triazine-3,5(2H,4H)-dione]	18

— US6867207B2, “IL-5 inhibiting 6-azauracil derivatives” (Janssen Pharmaceutica N.V., priority 1997, dated 2005)
